The test system of one test is Meloidogyne incognita. Description: Meloidogyne test. Format: in vivo. Particulars: active compound concentration 20 ppm; sand, lettuce seeds. The protocol:
(§1) Solvent: 3 parts by weight of dimethylformamide
(§2) Emulsifier: 1 part by weight of alkylaryl polyglycol ether
To produce a suitable preparation of active compound, 1 part by weight of active compound is mixed with the stated amounts of solvent and emulsifier, and the concentrate is diluted with water to the desired concentration.
Vessels are filled with sand, a solution of the active compound, Meloidogyne incognita-egg larvae suspension and lettuce seeds. The lettuice seeds germinate, and the small plants develop. On the roots, galls are formed.
After the desired period of time, the nematicidal action is determined in % by the formation of galls. 100% means that no galls have been found; 0% means that the number of galls on the treated plants corresponds to that of the untreated control.

Test [1] relates to caterpillars of the army worm (Spodoptera frugiperda). Description: Spodoptera frugiperda test. Type of test: in vivo. Particulars: active compound concentration 1000 ppm; dipped cabbage leaves (Brassica oleracea). The method, then: Spodoptera frugiperda test
Solvent: 31 parts by weight of acetone
as §2
(§3) To produce a suitable preparation of active compound, 1 part by weight of active compound is mixed with the stated amounts of solvent and emulsifier, and the concentrate is diluted with emulsifier-containing water to the desired concentration.
Cabbage leaves (Brassica oleracea) are treated by being dipped into the preparation of active compound of the desired concentration and populated with caterpillars of the army worm (Spodoptera frugiperda) while the leaves are still moist.
After the desired period of time, the kill in % is determined. 100% means that all caterpillars have been killed; 0% means that none of the caterpillars have been killed.

In test [2] the test system is larvae of the mustard beetle (Phaedon cochleariae). Nature of the test: Phaedon larvae test. Type of test: in vivo. Particulars: active compound concentration 1000 ppm; dipped cabbage leaves (Brassica oleracea). The method, then: as §1, §2, §3
Cabbage leaves (Brassica oleracea) are treated by being dipped into the preparation of active compound of the desired concentration and populated with larvae of the mustard beetle (Phaedon cochleariae) while the leaves are still moist.
After the desired period of time, the kill in % is determined. 100% means that all beetle larvae have been killed; 0% means that none of the beetle larvae have been killed.

The test system of test [3] is caterpillars of the diamond back moth (Plutella xylostella). Description: Plutella test/symptomatology study. Format: in vivo. The conditions noted are these: 10 μg/larva; 1 μl acetone solution administered to caterpillars. The method, then:
Plutella test/symptomatology study
To prepare an advantgeous preparation of active compound, 10 mg of active compound are mixed with 1 ml of solvent.
1 μl of the solution prepared in this manner is administered to caterpillars of the diamond back moth (Plutella xylostella).
After the desired period of time, the kill in % is determined 100% means that all caterpillars have been killed; 0% means that none of the caterpillars have been killed.

For another test, the system named is silkworms. The conditions noted are these: known from literature (Kanaoka et al. 1979; JP 05 271 013); cited from earlier work.

For `CC(C)C[C@H]1C(=O)O[C@H](Cc2ccc(N3CCOCC3)cc2)C(=O)N(C)[C@@H](CC(C)C)C(=O)O[C@H](C)C(=O)N(C)[C@@H](CC(C)C)C(=O)O[C@H](Cc2ccc(N3CCOCC3)cc2)C(=O)N(C)[C@@H](CC(C)C)C(=O)O[C@H](C)C(=O)N1C` [compound of the formula (I)], the “nematicidal action (effect) by the formation of galls” value in the test on Meloidogyne incognita turned out to be 98%. Besides, the kill rate in test [1], in test [2] and in test [3] was 100% each time.

With `CC(C)C[C@H]1C(=O)O[C@H](Cc2ccccc2)C(=O)N(C)[C@@H](CC(C)C)C(=O)O[C@H](C)C(=O)N(C)[C@@H](CC(C)C)C(=O)O[C@H](Cc2ccccc2)C(=O)N(C)[C@@H](CC(C)C)C(=O)O[C@H](C)C(=O)N1C` [PF1022A], the “insecticidal activity against silkworms” value with silkworms is given as “insecticidal activity”.

On to `CC(C)C[C@H]1C(=O)O[C@H](C(C)C)C(=O)N(C)[C@@H](CC(C)C)C(=O)O[C@H](C(C)C)C(=O)N(C)[C@@H](CC(C)C)C(=O)O[C@H](C(C)C)C(=O)N(C)[C@@H](CC(C)C)C(=O)O[C@H](C(C)C)C(=O)N1C` [bassianolide], for which the “insecticidal activity against silkworms” value in the test with silkworms is “insecticidal activity”.

The values are drawn from patent US20030133962A1, “Pest control agent/pf 1022-221” (priority 1999, published 2003).
